Patent publication US11198761B2, “Biodegradable polyionenes” (AGENCY FOR SCIENCE, TECHNOLOGY AND RESEARCH, priority 2017, dated 2021)

Legend:
K. pneumoniae 8637 [1] = assay: Survival of K. pneumoniae 8637-infected mice; assay type: in vivo; conditions: 2.0 mg/kg intraperitoneally once daily for 3 days, five days, n=10
Procedure: ICR mice (female, 7 weeks old, […]) were used for the in vivo studies. Immunosuppression was induced by intraperitoneal injection of 200 mg/Kg cyclophosphamide (Hengrui Corp, Jiangsu Province, P. R. China) 4 days prior to infection. Mice were anesthetized by intra-peritoneal injection of 1% pentobarbital (40 mg/kg, Sigma).
To investigate the in vivo antibacterial efficacy of P-1a-1 (6037B), a pneumonia mouse model was established. The immunosuppression of mice was induced as described above. Overnight cultures of K. pneumoniae 8637 were harvested and suspended in PBS. Before instillation with K. pneumoniae 8637, the mice were anesthetized using an intraperitoneal injection with 1% pentobarbital (40 mg/kg). […] It was determined from the survival rate of mice at 5 days post-infection by the BLISS method.
To further determine the in vivo therapeutic efficacy of P-1a-1 (6037B), survival of the K. pneumoniae 8637-infected mice was monitored with and without treatment. […] After being anesthetized, each of the immunosuppressed mice was inoculated intranasally with 0.03 mL of bacterial suspension at the minimum lethal dose determined above. […] The mice were monitored for a period of five days, and the number of surviving mice in each group was recorded. […]

K. pneumoniae 8637 [2] = assay: Efficacy (ED50/ED95) in K. pneumoniae 8637-induced pneumonia; assay type: in vivo; conditions: immunosuppressed mice, intraperitoneally once daily for 3 days, survival over 5 days, BLISS method
Procedure: ICR mice (female, 7 weeks old, 24-26 mg) were used for the in vivo studies. Immunosuppression was induced by intraperitoneal injection of 200 mg/Kg cyclophosphamide (Hengrui Corp, Jiangsu Province, P. R. China) 4 days prior to infection. Mice were anesthetized by intra-peritoneal injection of 1% pentobarbital (40 mg/kg, Sigma).
The immunosuppression of mice was induced as described above. Overnight cultures of K. pneumoniae 8637 were harvested and suspended in PBS. Before instillation with K. pneumoniae 8637, the mice were anesthetized using an intraperitoneal injection with 1% pentobarbital (40 mg/kg). Each of the immunosuppressed mice was infected intranasally with 0.03 mL of the bacterial suspension at designated doses (i.e. 1×10^9, 1.5×10^9, 2.3×10^9, 3.5×10^9, 5.3×10^9, 8.0×10^9 CFU/ml, four mice per group). The minimum lethal dose was defined as the lowest dose, which was sufficient to cause 100% mortality. It was determined from the survival rate of mice at 5 days post-infection by the BLISS method.
The number of surviving mice in each group was recorded for 5 days to assess ED50 by the BLISS method.

[3] = test system: C. albicans (ATCC No 10231); assay: MIC, broth microdilution; assay type: cell-based, Candida albicans; conditions: Gemini-surfactant series S; 42 hours, room temperature
Procedure: (§1) Bacterial and fungal samples were inoculated according to ATCC's requirement. Briefly, bacteria and fungi were grown in Mueller Hinton Broth (MHB) at 37° C. and room temperature, respectively overnight to allow the microbes to enter the log growth phase with constant 100 rpm shaking. Minimum inhibitory concentration (MIC) of the polymers was determined using the broth microdilution method. 100 μL of 20% v/v water-containing broth with various polymer or Gemini-surfactant concentrations was first added into each well of a 96-well tissue culture plate. The inoculated overnight microbe solution was first diluted to an optical density (O.D.) reading of 0.07 using a microplate reader (TECAN, Switzerland). This will correspond to 3×10^8 CFU/mL based on the McFarland 1 standard solution (CFU=colony forming units). The microbe solution was further diluted 1000 times to achieve a final 3×10^5 CFU/mL. To each well, an equal volume of diluted microbes solution was added and incubated at 37° C. for 18 hours for bacteria samples and at room temperature for 42 hours for fungi samples. There were 6 replicates for each concentration tested, with negative control being microbes added into broth containing 20% v/v deionized water. MIC was taken as the lowest concentration at which there was no observable microbe growth when measured by the microplate reader.

[4] = test system: rat red blood cells (rRBCs); assay: Hemolysis assay; assay type: cell-based; conditions: Gemini-surfactant series S; 1 hour, 37° C.
Procedure: Freshly obtained rat red blood cells (rRBC) from the Animal Handling Unit of Biomedical Research Center (Singapore) was used to test the hemolytic activity of the polymers and Gemini-surfactants. The rRBC was diluted to 4% v/v with phosphate-buffered saline (PBS) and added to an equal volume of 0.2% v/v Triton-X solution. A microplate reader was used to measure the optical density (O.D.) reading to make sure the value is between 0.5 and 0.6. An equal volume of different polymer or Gemini-surfactant concentrations was added to the diluted blood and incubated for 1 hour at 37° C. The samples were centrifuged at 1000 g at 4° C. for 5 minutes and 100 μL of the supernatant was collected and transferred to a 96-well tissue culture plate. There were 4 replicates for each concentration. Haemoglobin release was measured using the microplate reader at 576 nm. rRBCs treated with PBS were used as the […] control, while those treated with 0.2% v/v Triton-X was used as the […] control.
Percentage of hemolysis was calculated as follows: Hemolysis (%)═[(O.D.576 nm of the treated sample−O.D.576 nm of negative control)/(O.D.576 nm of positive control−O.D.576 nm of negative control)]×100%
HC50 was taken as the polymer concentration at which the polymer causes 50% hemolysis.

S. aureus biofilms [5] = assay: XTT assay for cell viability of biofilms; assay type: cell-based, Staphylococcus aureus; conditions: 18 hours treatment
Procedure: (§2) The bacteria stock was diluted in Mueller Hinton Broth (MHB) to get an optical density (OD) reading of 0.07 at 600 nm. 48 wells of a 96 flat-well plate were plated with 100 μL of bacteria suspension each. The plate was then incubated at 37° C. Every day over the next 7 days, MHB was carefully removed from the plate so as not to disturb the biofilm at the bottom of the well, and replaced with 100 μL of fresh MHB to each well.
(§3) After the biofilm was cultured, at the end of 7 days, MHB was removed from the wells. The biofilms were washed carefully with PBS 3 times to remove planktonic cells. The surfactant was weighed in a micro-centrifuge tube, and the weighed sample was diluted to 10,000 mg L^−1 using distilled water. Serial dilution was conducted to obtain surfactant solutions having concentrations of 100 mg L^−1, 70 mg L^−1, 50 mg L^−1, 35 mg L^−1, 25 mg L^−1, 20 mg L^−1, and 10 mg L^−1. The solvent was 20% distilled water and 80% MHB for each solution. The control was 20% distilled water and 80% MHB without surfactant. The surfactant solutions of different concentrations were added to the wells, 100 μL into each, with 6 replicates for each concentration. The plate was then incubated at 37° C. for 18 hours. […] At the end of the incubation period, the optical density (OD) reading of the plate was taken at 490 nm.

[6] = test system: S. aureus (ATCC No. 6538); assay: MIC, broth microdilution; assay type: cell-based, Staphylococcus aureus; conditions: Gemini-surfactant series S; 18 hours, 37° C.
Procedure: as §1

E. coli biofilms [7] = assay: Biofilm biomass assay (safranin O); assay type: cell-based, Escherichia coli; conditions: 18 hours treatment
Procedure: as §2
as §3, with “10000” for “10,000”, “of” for “having”, “concentrations” for “concentrations of”, “was” for “was then”, “550” for “490”

E. coli (ATCC No. 25922) = assay: MIC, broth microdilution; assay type: cell-based, Escherichia coli; conditions: Gemini-surfactant series S; 18 hours, 37° C.
Procedure: as §1

[8] = test system: P. aeruginosa (ATCC No. 9027); assay: MIC, broth microdilution; assay type: cell-based, Pseudomonas aeruginosa; conditions: Gemini-surfactant series S; 18 hours, 37° C.
Procedure: as §1

[9] = test system: S. aureus, E. coli, P. aeruginosa, C. albicans; assay: Killing efficiency test (CFU on agar after MIC testing); assay type: cell-based; conditions: at MIC and 2×MIC, all the microbes
Procedure: After MIC testing, all solutions from the control, ½MIC, MIC and 2MIC wells were collected and subjected to a series of ten-fold dilution. 20 μL of the diluted microbe solution was streaked onto pre-casted agar plates using LB+1.5% agar from the first Base. Agar plates with bacteria samples were incubated at 37° C. for 18 hours while those with fungi samples were incubated for 42 hours at room temperature before the CFUs were counted.

[10] = test system: S. aureus, E. coli, P. aeruginosa, C. albicans; assay: Killing kinetics, several strains together; assay type: cell-based
Procedure: 600 μL of 3×10^5 CFU/mL microbial suspension was added to each concentration of the polymer. […] 20 μL of the diluted microbial suspension was then plated onto agar plates and incubated for 24 hours and 42 hours at 37° C. and room temperature for bacteria and fungi respectively, then manually counted for CFU.

S. aureus biofilms [11] = assay: Biofilm biomass assay (safranin O); assay type: cell-based, Staphylococcus aureus; conditions: 18 hours treatment
Procedure: as §2
as §3, with “10000” for “10,000”, “of” for “having”, “concentrations” for “concentrations of”, “was” for “was then”, “550” for “490”

E. coli biofilms [12] = assay: XTT assay for cell viability of biofilms; assay type: cell-based, Escherichia coli; conditions: 18 hours treatment
Procedure: as §2, §3

SMILES	survival (K. pneumoniae 8637 [1])	ED50 (K. pneumoniae 8637 [2]; Klebsiella pneumoniae, 8637, ip)	ED95 (K. pneumoniae 8637 [2])	MIC CA [3]	Hemolysis, HC50 [4]	biofilm cell viability (S. aureus biofilms [5])	MIC SA [6]	biomass of biofilm (E. coli biofilms [7])	MIC EC (E. coli (ATCC No. 25922))	MIC PA [8]	reduction in the colony forming units (CFU) [9]	killing of all four strains of microbes ([10]; 16 and 32×MIC, 2 minutes)	concentration needed to completely eradicate the microbes ([10]; 30 seconds)	biomass of biofilm (S. aureus biofilms [11])	biofilm cell viability (E. coli biofilms [12])
C[C@@H](O)[C@H]1C(=O)N2C(C(=O)O)=C(SCCN=CN)C[C@H]12 [imipenem]	60%	2.75 mg/kg	20.0 mg/kg	–	–	–	–	–	–	–	–	–	–	–	–
CCCCCCCCCC[N+](C)(C)Cc1ccc(C(=O)NCCCCCCNC(=O)c2ccc(C[N+](C)(C)CCCCCCCCCC)cc2)cc1.[Cl-].[Cl-] [S-3g]	–	–	–	2 ppm	125-250 ppm	reduced in a dose dependent manner	1 ppm	reduced in a dose dependent manner	1 ppm	8 ppm	≥ 99.9%	completely killed	64 ×MIC	reduced in a dose dependent manner	reduced in a dose dependent manner
C[N+](C)(Cc1ccc(C(=O)NCCOCCOCCNC(=O)c2ccc(C[N+](C)(C)C3CCCCC3)cc2)cc1)C1CCCCC1.[Cl-].[Cl-] [S-5c]	–	–	–	>500 ppm	>2000 ppm	–	>500 ppm	–	>500 ppm	>500 ppm	–	–	–	–	–
CCCCCCCC[N+](C)(C)Cc1ccc(C(=O)NCCNC(=O)c2ccc(C[N+](C)(C)CCCCCCCC)cc2)cc1.[Cl-].[Cl-] [S-1f]	–	–	–	125 ppm	>2000 ppm	–	31 ppm	–	250 ppm	>500 ppm	–	–	–	–	–
CCCCCCCCCC[N+](C)(C)Cc1ccc(C(=O)OCCCCCCCCCCCCOC(=O)c2ccc(C[N+](C)(C)CCCCCCCCCC)cc2)cc1.[Cl-].[Cl-] [S-10g]	–	–	–	16 ppm	63-125 ppm	–	16 ppm	–	500 ppm	500 ppm	–	–	–	–	–
